Active and inactive are the calls of the source.
Legend:
[1] = luciferase reporter signal suppression in cells – H4 neuroglioma cells, luminescence, dose response (AID 1990); assay type: functional, cell-based
HEK293 [2] = assay: inhibition of NOD1-driven NF-kB reporter – cell-based, luminescence, uHTS, primary screen (AID 1578); assay type: functional; conditions: Homo sapiens
[3] = Luminescence Cell-Based Dose Response HTS to Identify Inhibitors of 5'UTR Stem-Loop Driven Prion Protein mRNA Translation in H4 Neuroglioblastoma Cells. [Related pubchem assays: 1827 (Project Summary), 1813 (Primary HTS)]; assay type: functional
[4] = alpha-synuclein stem-loop luciferase translation blockers – H4 neuroglioma cells, luminescence, confirmation (AID 1988); assay type: functional, cell-based
HEK293 [5] = assay: cells; assay type: functional, cell-based; conditions: Homo sapiens
[6] = molecular target: Nucleotide-binding oligomerization domain-containing protein 2 (Homo sapiens, UniProt Q9HC29); assay: inhibition of NOD2-driven NF-kB reporter – cell-based, luminescence, uHTS, HEK293 (AID 1566); assay type: functional
HEK293 [7] = assay: NOD2 signaling inhibitors in MDP-stimulated cells, cell-based, uHTS, luminescence (AID 2001); assay type: functional; conditions: Homo sapiens
HEK293 [8] = assay: cells; assay type: functional, cell-based; conditions: Homo sapiens; remark: listed apart in the source
CHO = CHO cell viability loss, potency – luminescence, cytotoxicity control for TLR9-MyD88 binding inhibitor project, dose response (AID 588339); assay type: functional, cell-based, hamster; conditions: Cricetulus griseus;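 also: CHO cells stably coexpressing TLR9 and MyD88 fusions from primary screen; compound exposure lasted 48 hours before viability readout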
[9] = molecular target: T1, Replicative DNA helicase DnaB (Mycobacterium tuberculosis, UniProt P9WMR3); assay: DnaB intein splicing inhibitors, dose response, biochemical, cell-free fluorescence (AID 449749); assay type: functional
T1 sequence (P9WMR3 whole entry): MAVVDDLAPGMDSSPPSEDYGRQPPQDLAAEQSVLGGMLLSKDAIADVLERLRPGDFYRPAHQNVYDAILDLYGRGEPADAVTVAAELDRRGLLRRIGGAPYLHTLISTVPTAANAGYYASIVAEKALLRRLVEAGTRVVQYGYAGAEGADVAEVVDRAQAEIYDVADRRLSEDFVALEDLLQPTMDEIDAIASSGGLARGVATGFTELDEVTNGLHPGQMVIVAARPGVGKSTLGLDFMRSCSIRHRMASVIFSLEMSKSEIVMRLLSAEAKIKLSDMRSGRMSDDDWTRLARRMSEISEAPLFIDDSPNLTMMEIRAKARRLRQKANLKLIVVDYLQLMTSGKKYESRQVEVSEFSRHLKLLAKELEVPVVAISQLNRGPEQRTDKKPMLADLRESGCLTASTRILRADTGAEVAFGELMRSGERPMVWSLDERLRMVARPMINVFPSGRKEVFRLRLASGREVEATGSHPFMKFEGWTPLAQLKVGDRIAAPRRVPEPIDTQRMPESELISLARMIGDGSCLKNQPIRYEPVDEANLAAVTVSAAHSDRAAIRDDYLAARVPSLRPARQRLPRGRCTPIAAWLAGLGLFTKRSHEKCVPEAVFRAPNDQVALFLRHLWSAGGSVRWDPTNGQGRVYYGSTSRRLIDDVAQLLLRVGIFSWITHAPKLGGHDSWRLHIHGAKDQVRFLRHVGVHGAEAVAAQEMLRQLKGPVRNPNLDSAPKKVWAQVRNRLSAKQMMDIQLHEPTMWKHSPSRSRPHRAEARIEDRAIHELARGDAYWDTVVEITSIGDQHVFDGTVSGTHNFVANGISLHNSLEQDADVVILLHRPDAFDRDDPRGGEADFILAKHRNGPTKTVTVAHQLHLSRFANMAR

[10] = molecular target: Heat shock protein HSP 90-alpha (Homo sapiens, UniProt P07900); assay type: functional, organism-based
Protein RecA = molecular target: T2, Protein RecA (Mycobacterium tuberculosis, UniProt P9WHJ3); assay: Fluorescence Cell-Free Homogeneous Dose Retest to Identify Inhibitors of RecA-Intein Splicing Activity. [Related pubchem assays (depositor defined):AID2097, AID2223, AID489010, AID492950]; assay type: functional
T2 sequence (P9WHJ3 whole entry): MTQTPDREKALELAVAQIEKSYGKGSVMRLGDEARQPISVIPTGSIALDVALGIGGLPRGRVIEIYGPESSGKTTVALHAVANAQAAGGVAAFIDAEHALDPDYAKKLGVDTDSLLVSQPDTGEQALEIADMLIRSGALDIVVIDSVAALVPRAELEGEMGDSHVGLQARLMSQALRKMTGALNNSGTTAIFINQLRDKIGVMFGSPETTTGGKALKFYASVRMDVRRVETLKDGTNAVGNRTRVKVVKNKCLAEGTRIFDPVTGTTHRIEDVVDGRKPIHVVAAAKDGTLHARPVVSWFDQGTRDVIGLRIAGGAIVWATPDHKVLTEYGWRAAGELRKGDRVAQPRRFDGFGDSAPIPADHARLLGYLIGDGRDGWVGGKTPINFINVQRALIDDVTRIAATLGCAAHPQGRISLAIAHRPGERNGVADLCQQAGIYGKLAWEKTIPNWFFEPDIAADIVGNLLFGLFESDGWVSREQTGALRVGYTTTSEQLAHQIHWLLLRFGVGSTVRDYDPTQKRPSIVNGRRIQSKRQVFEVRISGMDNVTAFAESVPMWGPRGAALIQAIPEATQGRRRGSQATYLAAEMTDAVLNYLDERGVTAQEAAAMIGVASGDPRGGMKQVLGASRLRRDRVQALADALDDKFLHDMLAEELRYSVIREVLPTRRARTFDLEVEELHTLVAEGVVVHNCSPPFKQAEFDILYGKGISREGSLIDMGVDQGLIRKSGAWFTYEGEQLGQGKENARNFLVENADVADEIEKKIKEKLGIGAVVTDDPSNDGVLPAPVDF

Beta Lactamase = Beta Lactamase (Pseudomonas aeruginosa, UniProt Q932Y6); assay: BLA reporter interference, concentration series – BLA reporter cells, FRET fluorescence, artefact control for TLR9-MyD88 binding inhibitor project, dose response (AID 588341); assay type: cell-based;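 also: cell based assay in CHO-K1 cells stably expressing beta-lactamase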
[11] = reduction of Shn3 3'UTR-driven luciferase in osteoblasts – cell-based, Clone20 osteoblasts, firefly luciferase, cherry-picked, dose response (AID 624132); assay type: functional;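 also: firefly luciferase luminescence from reporter carrying the Shn3 3'UTR in osteoblasts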
[12] = molecular target: ATP-binding cassette sub-family B member 6 (Homo sapiens, UniProt Q9NP58); assay: concentration-dependent ABCB6 porphyrin transport blockade – K562-ABCB6 cells, flow cytometry, cherry pick 1, dose response (AID 623955); assay type: functional; conditions: read-out: EC50_MICROM
[13] = loss of viability in HepG2 cells – cell-based, CellTiter-Glo, cherry-picked, cytotoxicity control for Shn3 inhibitor project, dose response (AID 624134); assay type: functional
[14] = non-specific 3'UTR reporter inhibition in Clone20-Shn3RL – cell-based, Renilla luciferase, cherry-picked, counter-screen for Shn3 inhibitor project, dose response (AID 624133); assay type: functional
Fatty acid synthase [15] = molecular target: T3, Fatty acid synthase (Homo sapiens, UniProt P49327); assay: inhibition of human FAS-TE enzyme activity – biochemical, endpoint fluorescence intensity, uHTS hits, dose response (AID 624327); assay type: functional;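 also: fluorescence from hydrolysis of an O-methyl fluorescein acyl ester substrate by the enzyme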
Fatty acid synthase [16] = molecular target: T3, Fatty acid synthase; assay: inhibition of human FAS-TE enzyme activity – biochemical, kinetic fluorescence intensity, dose response (AID 624326); assay type: functional;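 also: rate of fluorescence rise from hydrolysis of a fluorogenic O-methyl fluorescein ester substrate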
Paired box protein Pax-8 = Paired box protein Pax-8 (Homo sapiens, UniProt Q06710); assay: PAX8 transcriptional activity inhibition in RMG-I – RMG-I cells, luciferase, cherry-pick, dose response (AID 687027); assay type: functional, cell-based;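 also: luciferase reporter driven by Pax8 target thyroperoxidase promoter measured by SteadyGlo luminescence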
[17] = inhibitors acting on PAX2 in cells – cell-based, plate reader, dry powder samples, selectivity assay for PAX8 inhibitor project, dose response (AID 743048); assay type: functional;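 also: HEK293 cells carrying a WT1 promoter luciferase reporter driven by expressed Pax2; potency is for inhibition of Pax2 driven reporter signal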
[18] = COV362 cell viability loss – plate reader, dry powder, SA12, cytotoxicity control for PAX8 inhibitor project, dose response (AID 743144); assay type: functional, cell-based
[19] = toxicity toward immortalized ovarian surface epithelium – cell-based, plate reader, dry powder samples, cytotoxicity control for PAX8 inhibitor project, dose response (AID 743045); assay type: functional
[20] = A2780 cell killing – plate reader, dry powder samples, cytotoxicity control, dose response (AID 743046); assay type: functional, cell-based
[21] = OVCAR-3 cell viability loss – plate reader, dry powder samples, PAX8 inhibitor project, dose response (AID 743044); assay type: functional, cell-based
[22] = PAX5 cellular inhibition readout – cell-based, plate reader, dry powder samples, selectivity assay for PAX8 inhibitor project, dose response (AID 743047); assay type: functional;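 also: HEK293 cells carrying a Pax5 driven CD19 promoter luciferase reporter; potency of inhibitors that lower reporter luminescence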
[23] = IGROV1 cell killing – plate reader, dry powder samples, PAX8 inhibitor project, dose response (AID 743043); assay type: functional, cell-based; conditions: IGROV-1
[24] = OVCAR4 cell viability loss – plate reader, dry powder, SA11, cytotoxicity control for PAX8 inhibitor project, dose response (AID 743150); assay type: functional, cell-based; conditions: OVCAR-4
[25] = COV434 cell viability loss – plate reader, dry powder, SA7, cytotoxicity control for PAX8 inhibitor project, dose response (AID 743145); assay type: functional, cell-based
[26] = OV-90 cell viability loss – plate reader, dry powder, SA8, PAX8 inhibitor project, dose response (AID 743149); assay type: functional, cell-based
[27] = PAX8-dependent cell viability loss – plate reader, dry powder, dose response (AID 743049); assay type: functional, cell-based
Escherichia coli = assay: microbe, parasite or virus in culture

T3 sequence (P49327 whole entry): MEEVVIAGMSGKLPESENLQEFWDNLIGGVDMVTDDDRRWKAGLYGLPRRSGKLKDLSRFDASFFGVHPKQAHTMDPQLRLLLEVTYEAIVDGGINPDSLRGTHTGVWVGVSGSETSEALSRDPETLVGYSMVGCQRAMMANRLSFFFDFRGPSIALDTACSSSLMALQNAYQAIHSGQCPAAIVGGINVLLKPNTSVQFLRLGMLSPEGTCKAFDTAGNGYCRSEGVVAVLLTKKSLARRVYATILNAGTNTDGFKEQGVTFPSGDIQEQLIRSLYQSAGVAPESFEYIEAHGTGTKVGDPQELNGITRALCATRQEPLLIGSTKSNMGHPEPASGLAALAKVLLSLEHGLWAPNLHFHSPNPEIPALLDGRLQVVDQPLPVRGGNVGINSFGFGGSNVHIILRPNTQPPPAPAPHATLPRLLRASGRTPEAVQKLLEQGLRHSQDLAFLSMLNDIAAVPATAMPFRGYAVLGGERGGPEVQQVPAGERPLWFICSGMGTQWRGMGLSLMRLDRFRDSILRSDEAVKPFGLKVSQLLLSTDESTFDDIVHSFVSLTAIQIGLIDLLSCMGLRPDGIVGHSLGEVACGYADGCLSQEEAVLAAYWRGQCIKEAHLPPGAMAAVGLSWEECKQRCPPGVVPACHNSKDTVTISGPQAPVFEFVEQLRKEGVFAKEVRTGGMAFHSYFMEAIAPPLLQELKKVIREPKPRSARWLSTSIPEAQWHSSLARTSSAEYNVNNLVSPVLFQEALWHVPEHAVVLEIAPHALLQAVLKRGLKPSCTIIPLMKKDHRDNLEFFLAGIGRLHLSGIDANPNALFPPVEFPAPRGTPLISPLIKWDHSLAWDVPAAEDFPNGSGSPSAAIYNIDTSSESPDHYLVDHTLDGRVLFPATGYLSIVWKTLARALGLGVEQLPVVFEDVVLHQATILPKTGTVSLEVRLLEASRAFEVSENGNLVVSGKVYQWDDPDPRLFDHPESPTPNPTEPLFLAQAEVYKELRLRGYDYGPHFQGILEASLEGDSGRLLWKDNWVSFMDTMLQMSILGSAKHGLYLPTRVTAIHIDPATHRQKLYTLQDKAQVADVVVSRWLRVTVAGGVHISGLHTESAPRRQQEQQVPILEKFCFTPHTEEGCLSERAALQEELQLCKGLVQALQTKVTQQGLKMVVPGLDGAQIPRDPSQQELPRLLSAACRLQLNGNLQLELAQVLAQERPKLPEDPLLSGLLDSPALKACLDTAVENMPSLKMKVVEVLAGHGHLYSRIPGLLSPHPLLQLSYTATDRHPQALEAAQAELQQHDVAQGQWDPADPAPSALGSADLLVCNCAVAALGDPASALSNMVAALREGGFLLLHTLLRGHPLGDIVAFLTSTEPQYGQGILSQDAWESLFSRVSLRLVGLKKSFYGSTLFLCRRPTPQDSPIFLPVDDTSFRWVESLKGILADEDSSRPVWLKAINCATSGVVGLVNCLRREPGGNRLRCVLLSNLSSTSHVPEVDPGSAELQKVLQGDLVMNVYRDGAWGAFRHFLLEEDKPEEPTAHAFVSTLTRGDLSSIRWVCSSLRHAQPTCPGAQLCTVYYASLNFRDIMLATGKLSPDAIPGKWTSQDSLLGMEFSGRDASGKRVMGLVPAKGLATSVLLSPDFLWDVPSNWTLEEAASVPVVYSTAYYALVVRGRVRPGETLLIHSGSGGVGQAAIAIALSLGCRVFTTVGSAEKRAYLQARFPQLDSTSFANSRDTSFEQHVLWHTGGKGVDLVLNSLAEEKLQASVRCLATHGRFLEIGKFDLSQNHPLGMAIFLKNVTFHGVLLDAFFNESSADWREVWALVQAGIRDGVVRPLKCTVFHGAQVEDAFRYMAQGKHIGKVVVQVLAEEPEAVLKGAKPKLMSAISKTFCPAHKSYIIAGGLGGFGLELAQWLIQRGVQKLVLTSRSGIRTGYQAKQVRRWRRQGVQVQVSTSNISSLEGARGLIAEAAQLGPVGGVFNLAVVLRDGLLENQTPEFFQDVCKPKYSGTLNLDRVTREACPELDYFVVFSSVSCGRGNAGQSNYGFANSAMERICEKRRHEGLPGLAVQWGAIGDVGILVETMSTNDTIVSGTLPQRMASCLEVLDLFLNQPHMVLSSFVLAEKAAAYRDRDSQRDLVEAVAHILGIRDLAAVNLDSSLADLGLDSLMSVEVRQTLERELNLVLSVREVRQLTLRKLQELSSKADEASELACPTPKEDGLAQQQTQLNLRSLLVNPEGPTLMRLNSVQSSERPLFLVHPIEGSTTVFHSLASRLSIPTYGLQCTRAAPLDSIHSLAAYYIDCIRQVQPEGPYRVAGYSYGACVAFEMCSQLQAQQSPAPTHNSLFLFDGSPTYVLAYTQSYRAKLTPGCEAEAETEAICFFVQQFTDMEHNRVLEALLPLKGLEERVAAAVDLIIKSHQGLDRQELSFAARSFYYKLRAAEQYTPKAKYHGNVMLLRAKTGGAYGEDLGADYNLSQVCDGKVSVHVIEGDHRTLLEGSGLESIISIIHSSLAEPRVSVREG
Nucleotide-binding oligomerization domain-containing protein 2, sequence (Q9HC29 whole entry, the tested form may be a part): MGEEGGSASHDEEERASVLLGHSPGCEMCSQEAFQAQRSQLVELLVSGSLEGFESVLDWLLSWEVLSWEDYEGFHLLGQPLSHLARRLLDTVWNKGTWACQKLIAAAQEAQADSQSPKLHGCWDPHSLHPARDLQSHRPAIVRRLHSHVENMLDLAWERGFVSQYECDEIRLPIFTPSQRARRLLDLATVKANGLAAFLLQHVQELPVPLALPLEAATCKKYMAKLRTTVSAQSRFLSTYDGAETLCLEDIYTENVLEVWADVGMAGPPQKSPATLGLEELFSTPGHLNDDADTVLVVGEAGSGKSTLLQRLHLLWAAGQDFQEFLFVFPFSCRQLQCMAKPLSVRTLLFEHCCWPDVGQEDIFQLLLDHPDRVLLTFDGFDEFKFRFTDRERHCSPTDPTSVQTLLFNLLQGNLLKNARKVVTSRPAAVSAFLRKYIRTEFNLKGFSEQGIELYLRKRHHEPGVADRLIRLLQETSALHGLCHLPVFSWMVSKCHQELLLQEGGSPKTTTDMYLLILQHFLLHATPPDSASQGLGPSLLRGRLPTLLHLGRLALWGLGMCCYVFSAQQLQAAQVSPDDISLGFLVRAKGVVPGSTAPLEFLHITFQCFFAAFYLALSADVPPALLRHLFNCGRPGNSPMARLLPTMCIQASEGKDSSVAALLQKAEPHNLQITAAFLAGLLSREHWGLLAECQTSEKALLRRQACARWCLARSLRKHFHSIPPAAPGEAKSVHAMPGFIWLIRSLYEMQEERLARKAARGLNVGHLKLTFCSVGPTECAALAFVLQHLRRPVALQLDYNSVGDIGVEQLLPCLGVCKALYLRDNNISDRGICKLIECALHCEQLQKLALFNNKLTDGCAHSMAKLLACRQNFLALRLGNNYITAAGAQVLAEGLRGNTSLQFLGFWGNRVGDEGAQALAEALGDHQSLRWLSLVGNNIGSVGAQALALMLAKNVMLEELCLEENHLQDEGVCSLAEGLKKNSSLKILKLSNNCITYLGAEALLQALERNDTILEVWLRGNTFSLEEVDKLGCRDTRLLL
ATP-binding cassette sub-family B member 6, sequence (Q9NP58 whole entry): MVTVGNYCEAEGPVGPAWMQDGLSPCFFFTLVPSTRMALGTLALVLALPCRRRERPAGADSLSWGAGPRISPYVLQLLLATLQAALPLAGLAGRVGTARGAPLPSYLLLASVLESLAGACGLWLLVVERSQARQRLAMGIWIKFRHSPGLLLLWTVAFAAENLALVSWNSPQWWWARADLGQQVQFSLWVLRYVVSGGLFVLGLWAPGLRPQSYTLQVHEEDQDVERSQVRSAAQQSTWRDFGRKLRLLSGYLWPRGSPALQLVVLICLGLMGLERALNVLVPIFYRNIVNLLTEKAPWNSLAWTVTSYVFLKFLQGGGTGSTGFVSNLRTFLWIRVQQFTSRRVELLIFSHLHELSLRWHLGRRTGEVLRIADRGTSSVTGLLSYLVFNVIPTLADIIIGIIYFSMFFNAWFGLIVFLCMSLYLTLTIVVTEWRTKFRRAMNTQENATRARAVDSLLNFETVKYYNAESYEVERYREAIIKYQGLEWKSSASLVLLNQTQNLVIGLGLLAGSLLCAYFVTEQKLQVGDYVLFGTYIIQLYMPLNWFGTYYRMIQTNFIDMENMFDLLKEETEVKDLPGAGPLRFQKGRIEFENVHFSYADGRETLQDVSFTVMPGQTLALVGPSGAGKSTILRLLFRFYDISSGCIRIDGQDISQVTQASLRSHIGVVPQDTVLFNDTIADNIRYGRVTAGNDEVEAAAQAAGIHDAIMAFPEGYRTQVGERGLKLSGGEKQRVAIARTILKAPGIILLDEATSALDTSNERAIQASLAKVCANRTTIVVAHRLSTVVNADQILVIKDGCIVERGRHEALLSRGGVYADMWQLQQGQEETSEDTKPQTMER
Paired box protein Pax-8, sequence (Q06710 whole entry): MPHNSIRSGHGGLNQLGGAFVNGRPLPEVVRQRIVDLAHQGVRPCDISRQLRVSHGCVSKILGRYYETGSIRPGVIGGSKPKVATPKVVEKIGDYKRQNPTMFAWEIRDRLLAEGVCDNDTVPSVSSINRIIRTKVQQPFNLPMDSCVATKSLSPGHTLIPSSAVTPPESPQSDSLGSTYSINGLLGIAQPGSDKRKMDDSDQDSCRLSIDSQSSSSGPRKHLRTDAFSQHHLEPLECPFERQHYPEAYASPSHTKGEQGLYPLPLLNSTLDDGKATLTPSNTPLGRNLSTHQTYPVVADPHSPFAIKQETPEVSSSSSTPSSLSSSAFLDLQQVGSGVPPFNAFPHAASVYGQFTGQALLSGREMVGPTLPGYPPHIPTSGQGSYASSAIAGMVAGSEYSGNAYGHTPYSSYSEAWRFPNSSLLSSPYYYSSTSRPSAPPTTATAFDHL
Beta Lactamase, sequence (Q932Y6 whole entry): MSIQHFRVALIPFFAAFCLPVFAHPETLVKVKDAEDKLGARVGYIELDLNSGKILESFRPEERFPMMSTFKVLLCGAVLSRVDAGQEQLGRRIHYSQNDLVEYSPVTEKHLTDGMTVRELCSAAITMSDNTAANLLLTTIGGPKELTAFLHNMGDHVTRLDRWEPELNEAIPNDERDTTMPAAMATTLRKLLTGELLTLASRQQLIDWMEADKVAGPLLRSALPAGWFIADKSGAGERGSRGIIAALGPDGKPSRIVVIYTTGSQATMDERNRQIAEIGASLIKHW

Cc1cccc(CS(=O)(=O)c2ncc(Cl)c(C(=O)Nc3ccc(F)cc3)n2)c1
EC50 [1]: 12.2 µM (active)
EC50 (HEK293 [2]): 8.42 µM (active)
EC50 [3]: 22 µM (active)
EC50 [4]: 12.4 µM (active)
IC50 (HEK293 [5]): > 20 µM (inactive)
EC50 [6]: > 20 µM (inactive)
IC50 (HEK293 [7]): 10.8 µM (inactive)
IC50 (HEK293 [8]): > 20 µM (inactive)
IC50 (CHO): 2.72 µM (active)
AC50 [9]: 3.25 µM (active)
AC50 [10]: 1.73 µM (active)
EC50 (Protein RecA): 2.19 µM (active)
IC50 (Beta Lactamase): 9.48 µM (active)
AC50 [11]: 0.55 µM (active)
EC50 [12]: 80.4 µM (active)
AC50 [13]: 29.2 µM (active)
AC50 [14]: 6.54 µM (active)
IC50 (Fatty acid synthase [15]): 9.64 µM (active)
IC50 (Fatty acid synthase [16]): 19.4 µM (active)
AC50 (Paired box protein Pax-8): 9.28 µM (active)
AC50 [17]: 14.8 µM (active)
AC50 [18]: 7.95 µM (active)
AC50 [19]: 10.5 µM (active)
AC50 [20]: 23.8 µM (active)
AC50 [21]: 7.88 µM (active)
AC50 [22]: 31.4 µM (active)
AC50 [23]: 9.96 µM (active)
AC50 [24]: 10.5 µM (active)
AC50 [25]: 4.11 µM (active)
AC50 [26]: 8.4 µM (active)
AC50 [27]: 12.7 µM (active)
AC50 (Escherichia coli): 25.5 µM (active)
